Assay results as given in the supplement of paper PMC11451515.

Tested on: P12-Ichikawa
Test: cell viability relative to DMSO control; higher = less cytotoxic
Details: 48 h
Outline: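 Viability is expressed as a percentage of DMSO wells within each plate, and cell-free wells serve as background. Seeding densities in the 1536-well plates (5 μl) were 500 cells/well for NOMO1 or SEM leukemia cells and 1000 cells/well for P12-Ichikawa. Each line was adapted for at least four passages in each medium. Library compounds in DMSO were pin-dosed at 47 μM to 0.79 nM (11 points, threefold), and CellTiter-Glo One luminescence was read after 48 h at 37°C.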

[1] = HPLM + 10% dialyzed FBS, 0.000781 µM
[2] = HPLM + 10% dialyzed FBS, 0.00234 µM
[3] = HPLM + 10% dialyzed FBS, 0.00702 µM
[4] = HPLM + 10% dialyzed FBS, 0.0211 µM
[5] = HPLM + 10% dialyzed FBS, 0.0632 µM
[6] = HPLM + 10% dialyzed FBS, 0.19 µM
[7] = HPLM + 10% dialyzed FBS, 0.569 µM
[8] = HPLM + 10% dialyzed FBS, 1.71 µM
[9] = HPLM + 10% dialyzed FBS, 5.12 µM
[10] = HPLM + 10% dialyzed FBS, 15.4 µM
[11] = HPLM + 10% dialyzed FBS, 46.1 µM
[12] = RPMI 5 mM glucose + 10% FBS, 0.000781 µM
[13] = RPMI 5 mM glucose + 10% FBS, 0.00234 µM
[14] = RPMI 5 mM glucose + 10% FBS, 0.00702 µM
[15] = RPMI 5 mM glucose + 10% FBS, 0.0211 µM
[16] = RPMI 5 mM glucose + 10% FBS, 0.0632 µM
[17] = RPMI 5 mM glucose + 10% FBS, 0.19 µM
[18] = RPMI 5 mM glucose + 10% FBS, 0.569 µM
[19] = RPMI 5 mM glucose + 10% FBS, 1.71 µM
[20] = RPMI 5 mM glucose + 10% FBS, 5.12 µM
[21] = RPMI 5 mM glucose + 10% FBS, 15.4 µM
[22] = RPMI 5 mM glucose + 10% FBS, 46.1 µM
[23] = RPMI 5 mM glucose + 10% dialyzed FBS, 0.000781 µM
[24] = RPMI 5 mM glucose + 10% dialyzed FBS, 0.00234 µM
[25] = RPMI 5 mM glucose + 10% dialyzed FBS, 0.00702 µM
[26] = RPMI 5 mM glucose + 10% dialyzed FBS, 0.0211 µM
[27] = RPMI 5 mM glucose + 10% dialyzed FBS, 0.0632 µM
[28] = RPMI 5 mM glucose + 10% dialyzed FBS, 0.19 µM
[29] = RPMI 5 mM glucose + 10% dialyzed FBS, 0.569 µM
[30] = RPMI 5 mM glucose + 10% dialyzed FBS, 1.71 µM
[31] = RPMI 5 mM glucose + 10% dialyzed FBS, 5.12 µM
[32] = RPMI 5 mM glucose + 10% dialyzed FBS, 15.4 µM
[33] = RPMI 5 mM glucose + 10% dialyzed FBS, 46.1 µM

Row | Compound | cell viability [1] | cell viability [2] | cell viability [3] | cell viability [4] | cell viability [5] | cell viability [6] | cell viability [7] | cell viability [8] | cell viability [9] | cell viability [10] | cell viability [11] | cell viability [12] | cell viability [13] | cell viability [14] | cell viability [15] | cell viability [16] | cell viability [17] | cell viability [18] | cell viability [19] | cell viability [20] | cell viability [21] | cell viability [22] | cell viability [23] | cell viability [24] | cell viability [25] | cell viability [26] | cell viability [27] | cell viability [28] | cell viability [29] | cell viability [30] | cell viability [31] | cell viability [32] | cell viability [33]
1 | CCCCc1oc2ccc(NS(C)(=O)=O)cc2c1C(=O)c1ccc(OCCCN(CCCC)CCCC)cc1 | 98.3% | 99% | 117% | 108% | 107% | 108% | 110% | 111% | 106% | 12.1% | 15% | 96% | 117% | 113% | 115% | 118% | 111% | 112% | 105% | 98.1% | 15.5% | 12.7% | 93.3% | 99.9% | 102% | 109% | 108% | 110% | 104% | 109% | 95.7% | 20.9% | 10.3%
2 | CCC1=C(C)CN(C(=O)NCCc2ccc(S(=O)(=O)NC(=O)N[C@H]3CC[C@H](C)CC3)cc2)C1=O | 94.6% | 102% | 98.9% | 104% | 107% | 104% | 102% | 105% | 97.7% | 109% | 109% | 89.5% | 101% | 95.5% | 92.9% | 95.3% | 111% | 107% | 101% | 87.3% | 113% | 115% | 90.7% | 86% | 90.7% | 92.5% | 103% | 104% | 98.5% | 98.8% | 94.8% | 104% | 108%
3 | N#Cc1c(C2CCNCC2)cc(-c2c(O)cccc2OCC2CC2)nc1N | 113% | 113% | 112% | 110% | 108% | 108% | 106% | 107% | 101% | 106% | 92% | 116% | 125% | 123% | 117% | 109% | 97.2% | 108% | 105% | 105% | 106% | 91.3% | 114% | 116% | 119% | 126% | 105% | 114% | 111% | 107% | 107% | 99.7% | 85.9%
4 | CC(C)[C@H](CO)Nc1nc(Nc2ccc(C(=O)O)c(Cl)c2)c2ncn(C(C)C)c2n1 | 119% | 120% | 116% | 121% | 119% | 115% | 96.1% | 103% | 87.1% | 96.3% | 92.9% | 111% | 124% | 117% | 134% | 127% | 130% | 95.7% | 88.4% | 89.2% | 93% | 69.9% | 119% | 122% | 130% | 111% | 120% | 129% | 102% | 94% | 87.1% | 102% | 73.7%
5 | CNC(=O)c1cc(Oc2ccc(NC(=O)Nc3cc(C(C)(C)C)nn3-c3ccc4ncccc4c3)c(F)c2)ccn1 | 111% | 120% | 124% | 128% | 139% | 134% | 132% | 131% | 134% | 139% | 125% |  |  |  |  |  |  |  |  |  |  |  |  |  |  |  |  |  |  |  |  |  | 
6 | COC(=O)N[C@H](C(=O)N[C@@H](Cc1ccccc1)[C@@H](O)CN(Cc1ccc(-c2ccccn2)cc1)NC(=O)[C@@H](NC(=O)OC)C(C)(C)C)C(C)(C)C | 118% | 107% | 102% | 107% | 124% | 118% | 102% | 105% | 107% | 101% | 25.4% | 102% | 117% | 116% | 107% | 112% | 117% | 114% | 116% | 122% | 113% | 108% | 98.9% | 111% | 112% | 113% | 113% | 107% | 103% | 99.2% | 94.7% | 98.2% | 86.4%
7 | COc1ccc2cc(-c3[nH]c(-c4ccc([S+](C)[O-])cc4)nc3-c3ccncc3)ccc2c1 (stereo unspecified) | 113% | 114% | 116% | 105% | 117% | 119% | 124% | 120% | 123% | 112% | 99.3% | 105% | 112% | 118% | 120% | 130% | 127% | 128% | 130% | 142% | 120% | 80.7% | 104% | 113% | 105% | 118% | 119% | 117% | 124% | 128% | 120% | 122% | 57.6%
8 | CCc1cc(/C(C)=N/OCc2ccc(C3CCCCC3)c(C(F)(F)F)c2)ccc1CN1CC(C(=O)O)C1 | 111% | 110% | 112% | 119% | 120% | 114% | 121% | 108% | 105% | 30.3% | 18.9% | 109% | 99% | 105% | 108% | 110% | 106% | 108% | 107% | 94.4% | 22.5% | 18.7% | 111% | 111% | 116% | 109% | 109% | 116% | 114% | 106% | 100% | 20.7% | 18.6%
9 | CCN(CC)CCOC1=CC=C(NC2=NC=C3\C=C(/C(=O)N(C)C3=N2)C4=C(Cl)C=CC=C4Cl)C=C1 | 107% | 114% | 109% | 84.8% | 111% | 96.5% | 99.6% | 109% | 21.8% | 5.01% | 4.01% | 122% | 120% | 118% | 85.2% | 109% | 101% | 113% | 106% | 13.3% | 4.01% | 6.43% | 118% | 124% | 122% | 94.6% | 109% | 96.9% | 111% | 113% | 12.1% | 4.8% | 6.66%
10 | CCCn1c(=O)c2[nH]c(C34CC5CC3C[C@@H](C5)C4)nc2n(CCC)c1=O | 111% | 107% | 100% | 97.8% | 112% | 110% | 107% | 99.5% | 93.6% | 96.6% | 96.1% | 102% | 113% | 112% | 110% | 136% | 106% | 64.5% | 80.3% | 85.5% | 86.1% | 90% | 94.2% | 101% | 92.4% | 96.9% | 99.9% | 100% | 94.2% | 98.7% | 98% | 93.2% | 88.6%
11 | CN(C)c1nc(N(C)C)nc(N(C)C)n1 | 108% | 108% | 104% | 104% | 101% | 103% | 94.4% | 94.3% | 89.6% | 94% | 83.5% | 103% | 100% | 98.3% | 95.9% | 90.5% | 93.9% | 98.8% | 87.2% | 87.9% | 89.9% | 93.2% | 90.3% | 99.9% | 95.5% | 99.6% | 97.1% | 91.6% | 91.9% | 85% | 87.9% | 90.7% | 86.8%
